Test results published in ChEMBL document CHEMBL5303573, “Mapping human microbiome drug metabolism by gut bacteria and their genes” (Nature, 2019).

How the values were obtained:
[1] = The drug is tested on Bifidobacterium breve strain: DSM20213 for biotransformation. The drug concentrations were measured before and after a 12-h incubation by liquid-chromatography-coupled mass spectrometry (LC–MS); conditions: 2 µM
[2] = The drug is tested on Bifidobacterium longum subsp. Infantis strain: CCUG52486 for biotransformation. The drug concentrations were measured before and after a 12-h incubation by liquid-chromatography-coupled mass spectrometry (LC–MS); conditions: 2 µM
[3] = The drug is tested on Collinsella aerofaciens strain: ATCC25986 for biotransformation. The drug concentrations were measured before and after a 12-h incubation by liquid-chromatography-coupled mass spectrometry (LC–MS); conditions: 2 µM
[4] = The drug is tested on Collinsella intestinalis strain: DSM13280 for biotransformation. The drug concentrations were measured before and after a 12-h incubation by liquid-chromatography-coupled mass spectrometry (LC–MS); conditions: 2 µM
[5] = The drug is tested on Alistipes indistinctus strain: DSM22520 for biotransformation. The drug concentrations were measured before and after a 12-h incubation by liquid-chromatography-coupled mass spectrometry (LC–MS); conditions: 2 µM
[6] = The drug is tested on Bacteroides caccae strain: ATCC43185 for biotransformation. The drug concentrations were measured before and after a 12-h incubation by liquid-chromatography-coupled mass spectrometry (LC–MS); conditions: 2 µM
[7] = The drug is tested on Bacteroides dorei strain: DSM17855 for biotransformation. The drug concentrations were measured before and after a 12-h incubation by liquid-chromatography-coupled mass spectrometry (LC–MS); conditions: phocaeicola dorei, 2 µM
[8] = The drug is tested on Bacteroides fragilis strain: HMW610 for biotransformation. The drug concentrations were measured before and after a 12-h incubation by liquid-chromatography-coupled mass spectrometry (LC–MS); conditions: 2 µM
[9] = The drug is tested on Bacteroides fragilis strain: ATCC43859 for biotransformation. The drug concentrations were measured before and after a 12-h incubation by liquid-chromatography-coupled mass spectrometry (LC–MS); conditions: 2 µM
[10] = The drug is tested on Bacteroides pectinophilus strain: ATCC43243 for biotransformation. The drug concentrations were measured before and after a 12-h incubation by liquid-chromatography-coupled mass spectrometry (LC–MS); conditions: 2 µM
[11] = The drug is tested on Bacteroides vulgatus strain: ATCC8482 for biotransformation. The drug concentrations were measured before and after a 12-h incubation by liquid-chromatography-coupled mass spectrometry (LC–MS); conditions: phocaeicola vulgatus, 2 µM
[12] = The drug is tested on Bacteroides xylanisolvens strain: DSM18836 for biotransformation. The drug concentrations were measured before and after a 12-h incubation by liquid-chromatography-coupled mass spectrometry (LC–MS); conditions: 2 µM
[13] = The drug is tested on Parabacteroides merdae strain: ATCC43184 for biotransformation. The drug concentrations were measured before and after a 12-h incubation by liquid-chromatography-coupled mass spectrometry (LC–MS); conditions: 2 µM
[14] = The drug is tested on Anaerococcus hydrogenalis strain: DSM7454 for biotransformation. The drug concentrations were measured before and after a 12-h incubation by liquid-chromatography-coupled mass spectrometry (LC–MS); conditions: 2 µM
[15] = The drug is tested on Anaerotruncus colihominis strain: DSM17241 for biotransformation. The drug concentrations were measured before and after a 12-h incubation by liquid-chromatography-coupled mass spectrometry (LC–MS); conditions: 2 µM
[16] = The drug is tested on Blautia luti strain: DSM14534 for biotransformation. The drug concentrations were measured before and after a 12-h incubation by liquid-chromatography-coupled mass spectrometry (LC–MS); type: ADME; parameters: dose 2 uM, timepoint 0 vs 12 hours; conditions: 2 µM
[17] = The drug is tested on Clostridium asparagiforme strain: DSM15981 for biotransformation. The drug concentrations were measured before and after a 12-h incubation by liquid-chromatography-coupled mass spectrometry (LC–MS); type: ADME; parameters: dose 2 uM, timepoint 0 vs 12 hours; conditions: enterocloster asparagiformis, 2 µM
[18] = The drug is tested on Clostridium ramosum strain: DSM1402 for biotransformation. The drug concentrations were measured before and after a 12-h incubation by liquid-chromatography-coupled mass spectrometry (LC–MS); conditions: thomasclavelia ramosa, 2 µM
[19] = The drug is tested on Clostridium scindens strain: ATCC35704 for biotransformation. The drug concentrations were measured before and after a 12-h incubation by liquid-chromatography-coupled mass spectrometry (LC–MS); conditions: 2 µM
[20] = The drug is tested on Clostridium symbiosum strain: ATCC14940 for biotransformation. The drug concentrations were measured before and after a 12-h incubation by liquid-chromatography-coupled mass spectrometry (LC–MS); conditions: 2 µM
[21] = The drug is tested on Coprococcus comes strain: ATCC27758 for biotransformation. The drug concentrations were measured before and after a 12-h incubation by liquid-chromatography-coupled mass spectrometry (LC–MS); type: ADME; parameters: dose 2 uM, timepoint 0 vs 12 hours; conditions: 2 µM
[22] = The drug is tested on Dorea formicigenerans strain: ATCC27755 for biotransformation. The drug concentrations were measured before and after a 12-h incubation by liquid-chromatography-coupled mass spectrometry (LC–MS); conditions: 2 µM
[23] = The drug is tested on Enterococcus faecalis strain: V583 for biotransformation. The drug concentrations were measured before and after a 12-h incubation by liquid-chromatography-coupled mass spectrometry (LC–MS); conditions: 2 µM
[24] = The drug is tested on Eubacterium ventriosum strain: ATCC27560 for biotransformation. The drug concentrations were measured before and after a 12-h incubation by liquid-chromatography-coupled mass spectrometry (LC–MS); type: ADME; parameters: dose 2 uM, timepoint 0 vs 12 hours; conditions: 2 µM
[25] = The drug is tested on Ruminococcus gnavus strain: ATCC29149 for biotransformation. The drug concentrations were measured before and after a 12-h incubation by liquid-chromatography-coupled mass spectrometry (LC–MS); conditions: mediterraneibacter gnavus, 2 µM
[26] = The drug is tested on Ruminococcus torques strain: ATCC27756 for biotransformation. The drug concentrations were measured before and after a 12-h incubation by liquid-chromatography-coupled mass spectrometry (LC–MS); type: ADME; parameters: dose 2 uM, timepoint 0 vs 12 hours; conditions: 2 µM
[27] = The drug is tested on Edwardsiella tarda strain: ATCC23685 for biotransformation. The drug concentrations were measured before and after a 12-h incubation by liquid-chromatography-coupled mass spectrometry (LC–MS); conditions: 2 µM
[28] = The drug is tested on Enterobacter cancerogenus strain: ATCC35316 for biotransformation. The drug concentrations were measured before and after a 12-h incubation by liquid-chromatography-coupled mass spectrometry (LC–MS); conditions: 2 µM
[29] = The drug is tested on Escherichia coli strain: BW25113 for biotransformation. The drug concentrations were measured before and after a 12-h incubation by liquid-chromatography-coupled mass spectrometry (LC–MS); conditions: 2 µM
[30] = The drug is tested on Providencia stuartii strain: ATCC25827 for biotransformation. The drug concentrations were measured before and after a 12-h incubation by liquid-chromatography-coupled mass spectrometry (LC–MS); conditions: 2 µM
[31] = bifidobacterium adolescentis, 12 h, 2 µM
Description: The drug is tested on Bifidobacterium adolescentis strain: ATCC 15703 for biotransformation. The drug concentrations were measured before and after a 12-h incubation by liquid-chromatography-coupled mass spectrometry (LC–MS)

[32] = bacteroides stercoris, 12 h, 2 µM
Description: The drug is tested on Bacteroides stercoris strain: ATCC43183 for biotransformation. The drug concentrations were measured before and after a 12-h incubation by liquid-chromatography-coupled mass spectrometry (LC–MS)

[33] = bacteroides thetaiotaomicron, 12 h, 2 µM
Description: The drug is tested on Bacteroides thetaiotaomicron strain: 3731 for biotransformation. The drug concentrations were measured before and after a 12-h incubation by liquid-chromatography-coupled mass spectrometry (LC–MS)

[34] = parabacteroides distasonis, 12 h, 2 µM
Description: The drug is tested on Parabacteroides distasonis strain: ATCC8503 for biotransformation. The drug concentrations were measured before and after a 12-h incubation by liquid-chromatography-coupled mass spectrometry (LC–MS)

[35] = parabacteroides johnsonii, 12 h, 2 µM
Description: The drug is tested on Parabacteroides johnsonii strain: DSM18315 for biotransformation. The drug concentrations were measured before and after a 12-h incubation by liquid-chromatography-coupled mass spectrometry (LC–MS)

[36] = segatella copri, 12 h, 2 µM
Description: The drug is tested on Prevotella copri strain: DSM18205 for biotransformation. The drug concentrations were measured before and after a 12-h incubation by liquid-chromatography-coupled mass spectrometry (LC–MS)

[37] = anaerostipes sp., 12 h, 2 µM
Description: The drug is tested on Anaerostipes sp. strain: fecal isolate for biotransformation. The drug concentrations were measured before and after a 12-h incubation by liquid-chromatography-coupled mass spectrometry (LC–MS)

[38] = enterocloster bolteae, 12 h, 2 µM
Description: The drug is tested on Clostridium bolteae strain: ATCCBAA-613 for biotransformation. The drug concentrations were measured before and after a 12-h incubation by liquid-chromatography-coupled mass spectrometry (LC–MS)

[39] = limosilactobacillus reuteri cf48-3a, 12 h, 2 µM
Description: The drug is tested on Lactobacillus reuteri CF48-3A strain: BEI HM-102 for biotransformation. The drug concentrations were measured before and after a 12-h incubation by liquid-chromatography-coupled mass spectrometry (LC–MS)

[40] = akkermansia muciniphila, 12 h, 2 µM
Description: The drug is tested on Akkermansia muciniphila strain: ATCC BAA-835 for biotransformation. The drug concentrations were measured before and after a 12-h incubation by liquid-chromatography-coupled mass spectrometry (LC–MS)

Measured: Bacterial Biotransformation

Nc1nc(NC2CC2)c2ncn([C@H]3C=C[C@@H](CO)C3)c2n1.Nc1nc(NC2CC2)c2ncn([C@H]3C=C[C@@H](CO)C3)c2n1.O=S(=O)(O)O [ABACAVIR SULFATE]
Compound NOT metabolized: [1] | [2] | [3] | [4] | [5] | [6] | [7] | [8] | [9] | [10] | [11] | [12] | [13] | [14] | [15] | [16] | [17] | [18] | [19] | [20] | [21] | [22] | [23] | [24] | [25] | [26] | [27] | [28] | [29] | [30] | [31] | [32] | [33] | [34] | [35] | [36] | [37] | [38] | [39] | [40]
